Source: patent US6335354B2, “Aminopyridines and methods of using thereof” (CoCensys Inc., priority 2000, dated 2002)

Columns and labels:
[1] = tested on: maximal electroshock-induced seizures (MES); assay: maximum electroshock seizure test (MES); type: in vivo; settings: Mus musculus, iv; mice, injected i.v. 15 minutes before the test procedure; read-out: ED50 (the dose protecting 50% of animals), protection against MES
Text: The compounds of the present invention may be tested for in vivo anticonvulsant activity after i.v., p.o. or i.p. injection using a number of anticonvulsant tests in mice, including the maximum electroshock seizure test (MES). Maximum electroshock seizures were induced in male NSA mice weighing between 15-20 g and male Sprague-Dawley rats weighing between 200-225 g by application of current (50 mA, 60 pulses/sec, 0.8 msec pulse width, 1 sec duration, D.C., mice; 99 mA. 125 pulses/sec, 0.8 msec pulse width, 2 sec duration, D.C., rats) using a Ugo Basile FCT device (Model 7801). Mice were restrained by gripping the loose skin on their dorsal surface and saline-coated corneal electrodes were held lightly against the two corneae. Rats were allowed free movement on the bench top and ear-clip electrodes were used. […] A tonic seizure was defined as a hindlimb extension in excess of 90 degrees from the plane of the body. Results were treated in a quantal manner. The ability of N^3-[4-(4-fluorophenoxy)benzyl]pyridine-2,3-diamine to block maximal electroshock-iniduced seizures (MES) was determined according to the method above. N^3-[4-(4-Fluorophenoxy)benzyl]pyridine-2,3-diamine was injected i.v. to mice 15 minutes before the test procedure.

[2] = target: T1, hSkM1 isoform of Na+ channels (Homo sapiens, UniProt P35499); assay: Electrophysiological assay, whole-cell patch-clamp recordings of voltage-sensitive Na+ currents; type: cell-based; settings: HEK-293 cells stably expressing hSkM1
T1 construct: expressed in transfected cells
Experimental: Cell preparalion. HEK-293 cells stably expressing the hSkM1 isoform of Na^+ channels (generous gift from Dr. A. L. George, Vanderbilt University Medical School) were cultured using standard techniques, as described previously (Verdoorn, T. A, et al., Neuron 4:919-928 (1990)). For electrophysiology, cells were plated onto 35 mm Petri dishes (pre-coated with poly-D-lysine) at a density of 1:40 on the day of re-seeding from confluent cultures. Our experience has been that cells are suitable for recordings for 2-3 days after plating.
Patch-clamp recordings of voltage-sensitive Na^+ currenis. Whole-cell voltage-clamp recordings were made using conventional patch-clamp techniques (Hamill et al, Pfluegers Arch. 391:85-100 (1981)) with an Axopatch 200A amplifier (Axon Instruments, Foster City, Calif.). Recordings were made within 2-3 hours after neuron dissociation. The recording chamber was continuously superfused with the external solution (150 mM NaCl, 5.4 mM KCl, 1.8 mM CaCl2, 1 mM MgCl2, 10 mM HEPES, 10 mM glucose, pH 7.4 (NaOH)) at a speed of about 1 mL/min. Recording pipettes were pulled from thick-walled capillaries (WPI, Sarasota, Fla.) and fire-polished. The pipette resistances ranged from 1 to 3 MΩ when the pipettes were filled with internal solution containing (in mM): 110 CsF, 10 NaCl, 5 MgCl2, 11 EGTA, 10 HEPES, pH adjusted to 7.4 with CsOH. Osmolality was set with a difference of 15-20 mmol/kg between external and internal solutions (lower inside the cell). Drugs and intervening wash-outs were applied through a linear array of flow pipes (Drummond Microcaps, 2 μL, 64-mm length). […] Currents were recorded at room temperature (22-25° C.), filtered at 5 kHz with an active 8-pole Bessel filter (Frequency Devices, Haverhill, Mass.), digitized at 10-50 μs intervals, and stored using Digidata 1200 analog/digital interface with Pclamp6/Clampex software (Axon Instruments). […] The inhibitory potency of drugs was assessed by measuring reductions in the peak amplitude of Na^+ currents induced by increasing concentrations of compounds tested. […]

T1 sequence (P35499 whole entry, canonical isoform): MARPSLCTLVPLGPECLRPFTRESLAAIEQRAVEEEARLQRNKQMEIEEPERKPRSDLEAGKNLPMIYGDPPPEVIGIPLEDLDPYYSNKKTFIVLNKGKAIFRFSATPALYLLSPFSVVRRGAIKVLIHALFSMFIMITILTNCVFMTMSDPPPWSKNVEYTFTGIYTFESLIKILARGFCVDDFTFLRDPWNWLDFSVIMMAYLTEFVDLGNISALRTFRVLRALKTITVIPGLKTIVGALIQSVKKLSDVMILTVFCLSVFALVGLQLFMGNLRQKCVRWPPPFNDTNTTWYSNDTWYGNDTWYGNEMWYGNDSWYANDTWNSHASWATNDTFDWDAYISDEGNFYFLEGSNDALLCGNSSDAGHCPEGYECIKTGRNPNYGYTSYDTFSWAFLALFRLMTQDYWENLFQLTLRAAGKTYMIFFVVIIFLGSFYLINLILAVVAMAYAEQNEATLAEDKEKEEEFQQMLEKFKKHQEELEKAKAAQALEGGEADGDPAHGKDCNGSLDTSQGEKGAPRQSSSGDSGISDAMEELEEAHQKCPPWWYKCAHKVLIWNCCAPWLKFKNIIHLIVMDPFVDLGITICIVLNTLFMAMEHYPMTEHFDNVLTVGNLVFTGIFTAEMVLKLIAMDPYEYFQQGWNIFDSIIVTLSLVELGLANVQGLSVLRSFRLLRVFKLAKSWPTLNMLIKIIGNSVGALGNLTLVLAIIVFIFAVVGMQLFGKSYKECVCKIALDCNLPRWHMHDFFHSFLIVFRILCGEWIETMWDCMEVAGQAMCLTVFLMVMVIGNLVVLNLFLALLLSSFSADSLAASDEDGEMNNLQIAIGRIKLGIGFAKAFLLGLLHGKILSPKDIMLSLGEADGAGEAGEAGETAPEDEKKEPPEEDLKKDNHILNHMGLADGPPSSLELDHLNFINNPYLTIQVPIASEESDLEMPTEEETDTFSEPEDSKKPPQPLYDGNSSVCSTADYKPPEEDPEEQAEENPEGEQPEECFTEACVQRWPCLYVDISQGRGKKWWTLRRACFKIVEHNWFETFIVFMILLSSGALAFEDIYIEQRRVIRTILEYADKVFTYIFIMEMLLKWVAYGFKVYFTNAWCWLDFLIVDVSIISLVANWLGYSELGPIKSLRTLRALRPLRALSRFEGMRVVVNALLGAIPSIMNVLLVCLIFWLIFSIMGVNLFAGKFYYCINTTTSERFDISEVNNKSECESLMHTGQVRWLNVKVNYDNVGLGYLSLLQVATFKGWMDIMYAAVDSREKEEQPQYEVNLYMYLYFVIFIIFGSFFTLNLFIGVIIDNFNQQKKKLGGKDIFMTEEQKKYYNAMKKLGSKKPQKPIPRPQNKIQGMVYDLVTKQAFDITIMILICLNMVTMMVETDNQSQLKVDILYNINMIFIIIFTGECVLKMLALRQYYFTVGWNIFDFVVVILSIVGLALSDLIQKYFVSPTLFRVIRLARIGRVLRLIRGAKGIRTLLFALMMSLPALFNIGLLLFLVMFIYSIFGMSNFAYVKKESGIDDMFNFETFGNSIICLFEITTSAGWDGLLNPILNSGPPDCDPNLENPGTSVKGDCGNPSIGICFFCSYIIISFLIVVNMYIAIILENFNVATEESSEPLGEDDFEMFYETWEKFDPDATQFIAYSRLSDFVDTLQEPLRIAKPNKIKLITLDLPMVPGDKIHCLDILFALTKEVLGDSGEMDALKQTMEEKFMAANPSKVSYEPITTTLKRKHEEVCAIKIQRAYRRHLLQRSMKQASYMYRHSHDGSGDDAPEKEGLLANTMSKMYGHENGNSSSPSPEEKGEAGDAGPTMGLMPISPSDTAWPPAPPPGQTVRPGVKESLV

Row | SMILES | ED50 [1] [mg/kg] | inhibition of voltage-gated sodium currents [2] | Ki ([2]; inactivated state, read-out: apparent antagonist dissociation constant Ki (the concentration of a compound that produces half maximal inhibition) for inactivated sodium channels) [nM] | potency towards Na+ channels in their resting states ([2]; resting state)
1 | Nc1ncccc1NCc1ccc(OCc2cccc(F)c2)cc1 [N^3-[4-(3-Fluorobenzyloxy)benzyl]pyridine-2,3-diamine] | 2.9 |  |  | 
2 | Nc1ncccc1NCc1ccc(Oc2ccc(F)cc2)cc1 [N^3-[4-(4-Fluorophenoxy)benzyl]pyridine-2,3-diamine] |  | dose-dependent inhibition | 60 | weak potency
